Experiment [1] has as its system STING pathway (NFκB pathway reporter, THP1-Dual cells). As to the kind of experiment: STING pathway activation, NFκB pathway secreted embryonic alkaline phosphatase (SEAP) reporter in THP1-Dual cells. The experiment is classed as cell-based. Conditions: QUANTI-Blue, 620 nm, 24-hour and 48-hour plates prepared, duration not given. How it is done:
(§1) STING pathway activation by the compounds described herein was measured using THP1-Dual™ cells. These cells are THP1 monocytes that have been modified to be reporters for the NF[…]B pathway (by inducing secreted embryonic alkaline phosphatase (SEAP) expression) and the IRF pathway (by inducing secreted luciferase (LUCIA)). Both of these pathways are activated by STING agonists in these cells.
(§2) THP1 Dual™ cells (obtained from Invivogen) are maintained in a cell growth medium that includes Roswell Park Memorial Institute medium (RPMI), 10% fetal calf serum (FCS), 100 U/ml Pen/Strep, 2 mM L-glut, 10 mM Hepes, and 1 mM sodium pyruvate. Prior to the assay, the cells were transferred to an assay medium that includes is RPMI, 5% FCS, 100 U/ml Pen/Strep, 2 mM L-glut, 10 mM Hepes, and 1 mM sodium pyruvate. Cells were then counted and evaluated for viability by trypan blue exclusion assay.
(§3) Compounds were dissolved in water or DMSO depending, for example, on their solubility in water or DMSO. The compounds are then diluted in the assay medium and plated into wells of a 384-well tissue culture plate in […] portions. Cells are then added in […] assay medium to result in a final cell concentration of 80,000 cells per well.
(§4) For each set of compounds, two plates were prepared: one plate that was subjected to a 24-hour assay duration, and one plate that was subjected to a 48-hour assay duration. The plates are incubated during their respective assay durations at 37° C., with 5% CO2.
(§5) To carry out the secreted embryonic alkaline phosphatase reporter, 10 µL of cell supernatant was mixed with 90 μL of QUANTI-Blue in a flat-bottom 384 well plate. The plates were incubated at 37′C for 1-2 hours. SEAP activity was measured using a spectrophotometer set at 620 nm. In the secreted luciferase (i.e., Lucia) assay, 10 µL of THP1-Blue™ WASG cell supernatant was plated, then 50 μL Quanti LUC Solution was added. Luminescence of the wells was then measured.

Experiment [2] deals with STING pathway (IRF pathway reporter, THP1-Dual cells). As to the kind of experiment: STING pathway activation, IRF pathway secreted luciferase (Lucia) reporter in THP1-Dual cells. It is filed as cell-based. The settings on record: Quanti LUC luminescence, 24-hour and 48-hour plates prepared, duration not given, read-out: IRF3 (EC50 μM). The procedure:
as §1, §2, §3, §4, §5

Read-outs that look alike come from different tables or passages of the source. Bounds are passed on as bounds.

In general, EC50 refers to the concentration that produces a half-maximal response. Take `Nc1nc2c(ncn2[C@@H]2O[C@@H]3COP(=O)(O)N[C@H]4[C@@H](O)[C@H](n5cnc6c(=O)[nH]c(N)nc65)O[C@@H]4COP(=O)(O)N[C@H]3[C@H]2O)c(=O)[nH]1` [Compound 75, Diammonium (1S,6S,8R,9R,10S,15S,17R,18R)-8,17-bis(2-amino-6-oxo-6,9-dihydro-1H-purin-9-yl)-9,18-dihydroxy-3,12-dioxo-4,7,13,16-tetraoxa-2,11-diaza-3λ^s,12λ^s-diphosphatricyclo[13.3.0.0^6,10]octadecane-3,12-bis(olate)]: the EC50 in experiment [1] (Homo sapiens, THP1-Dual) fell in the range of 10 to 49 µM; in experiment [2] (Homo sapiens, THP1-Dual) it was 10 to 49 µM.
For “Diammonium [(1S,6S,8R,9R,10S,15S,17R,18R)-8-(2-amino-6-oxo-6,9-dihydro-1H-purin-9-yl)-17-(6-amino-9H-purin-9-yl)-9,18-dihydroxy-3,12-dioxo-12-sulfanidyl-4,7,13,16-tetraoxa-2,11-diaza-3λ^s,12λ^s-diphosphatricyclo[13.3.0.0^6,10]octadecan-3-yl]sulfanide [Compound 72-0A3]”, the EC50 in experiment [1] is less than 1 µM; in experiment [2], 1 to 10 µM.
As to `Nc1ncnc2c1ncn2[C@@H]1O[C@@H]2COP(=O)(S)N[C@H]3[C@@H](O)[C@H](n4cnc5c(N)ncnc54)O[C@@H]3COP(=O)(S)N[C@H]2[C@H]1O` (single isomer, unassigned) [Compound 74-0A1], the EC50 in experiment [1] and in experiment [2] was 1 to 10 µM throughout.
As to `Nc1nc2c(ncn2[C@@H]2O[C@@H]3COP(=O)(S)N[C@H]4[C@@H](O)[C@H](n5cnc6c(=O)[nH]c(N)nc65)O[C@@H]4COP(=O)(O)N[C@H]3[C@H]2O)c(=O)[nH]1` (single isomer, unassigned) [Compound 76-0A1], the EC50 in experiment [1] (Homo sapiens, THP1-Dual) fell in the range of 1 to 10 µM; in experiment [2] (Homo sapiens, THP1-Dual) it was 10 to 49 µM.
Take `Nc1nc2c(ncn2[C@@H]2O[C@@H]3COP(=O)(S)N[C@H]4[C@@H](O)[C@H](n5cnc6c(=O)[nH]c(N)nc65)O[C@@H]4COP(=O)(S)N[C@H]3[C@H]2O)c(=O)[nH]1` (single isomer, unassigned) [Compound 76-0A3]: the EC50 is less than 1 µM in experiment [1] and 1 to 10 µM in experiment [2].
For `Nc1ncnc2c1ncn2[C@@H]1O[C@@H]2CNP(=O)(S)O[C@H]3[C@@H](F)[C@H](n4cnc5c(N)ncnc54)O[C@@H]3CNP(=O)(S)O[C@H]2[C@H]1F` (stereo partly drawn) [Compound 77, Diammonium [(1R,6R,8R,9R,10R,15R,17R,18R)-8,17-bis(6-amino-9H-purin-9-yl)-9,18-difluoro-3,12-dioxo-12-sulfanidyl-2,7,11,16-tetraoxa-4,13-diaza-3λ^s,12λ^s-diphosphatricyclo[13.3.0.0^6,10]octadecan-3-yl]sulfanide], the EC50 in experiment [1] (Homo sapiens) and in experiment [2] (Homo sapiens) was 50 to 100 µM in each case.
Turning to “Diammonium [(1S,6S,8R,9R,10S,15S,17R,18R)-8-(2-amino-6-oxo-6,9-dihydro-1H-purin-9-yl)-17-(6-amino-9H-purin-9-yl)-9,18-dihydroxy-3,12-dioxo-12-sulfanidyl-4,7,13,16-tetraoxa-2,11-diaza-3λ^s,12λ^s-diphosphatricyclo[13.3.0.0^6,10]octadecan-3-yl]sulfanide [Compound 72-0B1]”, the EC50 in experiment [1] was in the range of 50 to 100 µM; in experiment [2], 1 to 10 µM.
For the compound `Nc1ncnc2c1ncn2[C@@H]1O[C@@H]2COP(=O)(S)N[C@H]3[C@@H](O)[C@H](n4cnc5c(N)ncnc54)O[C@@H]3COP(=O)(S)N[C@H]2[C@H]1O` (single isomer, unassigned) [Compound 74-0B1], the EC50 in experiment [1] was in the range of 50 to 100 µM; in experiment [2], 10 to 49 µM.
In the case of “Diammonium [(1S,6S,8R,9R,10S,15S,17R,18R)-8-(2-amino-6-oxo-6,9-dihydro-1H-purin-9-yl)-17-(6-amino-9H-purin-9-yl)-9,18-dihydroxy-3,12-dioxo-12-sulfanidyl-4,7,13,16-tetraoxa-2,11-diaza-3λ^s,12λ^s-diphosphatricyclo[13.3.0.0^6,10]octadecan-3-yl]sulfanide [Compound 72-0A2]”, the EC50 in experiment [1] and in experiment [2] was 1 to 10 µM each time.
Regarding `Nc1ncnc2c1ncn2[C@@H]1O[C@@H]2COP(=O)(S)N[C@H]3[C@@H](O)[C@H](n4cnc5c(N)ncnc54)O[C@@H]3COP(=O)(S)N[C@H]2[C@H]1O` (single isomer, unassigned) [Compound 74-0A2], the EC50 in experiment [1] is less than 1 µM; in experiment [2] it was 1 to 10 µM.
On to `Nc1nc2c(ncn2[C@@H]2O[C@@H]3COP(=O)(S)N[C@H]4[C@@H](O)[C@H](n5cnc6c(=O)[nH]c(N)nc65)O[C@@H]4COP(=O)(S)N[C@H]3[C@H]2O)c(=O)[nH]1` (single isomer, unassigned) [Compound 76-0B1], for which the EC50 in experiment [1] lay within 50 to 100 µM; in experiment [2] it was 10 to 49 µM.
Regarding “Diammonium [(1S,6S,8R,9R,10S,15S,17R,18R)-8-(2-amino-6-oxo-6,9-dihydro-1H-purin-9-yl)-17-(6-amino-9H-purin-9-yl)-9,18-dihydroxy-3,12-dioxo-12-sulfanidyl-4,7,13,16-tetraoxa-2,11-diaza-3λ^s,12λ^s-diphosphatricyclo[13.3.0.0^6,10]octadecan-3-yl]sulfanide [Compound 72-0B2]”, the EC50 in experiment [1] and in experiment [2] was 10 to 49 µM each time.
As to `Nc1ncnc2c1ncn2[C@@H]1O[C@@H]2COP(=O)(O)N[C@H]3[C@@H](F)[C@H](n4cnc5c(N)ncnc54)O[C@@H]3COP(=O)(O)N[C@H]2[C@H]1F` [Compound 78, Diammonium (1R,6S,8R,9R,10R,15S,17R,18R)-8,17-bis(6-amino-9H-purin-9-yl)-9,18-difluoro-3,12-dioxo-4,7,13,16-tetraoxa-2,11-diaza-3λ^s,12λ^s-diphosphatricyclo[13.3.0.0^6,10]octadecane-3,12-bis(olate)], the EC50 lay within 50 to 100 µM in experiment [1] (Homo sapiens, THP1-Dual) and 50 to 100 µM in experiment [2] (Homo sapiens, THP1-Dual).
Take `Nc1nc2c(ncn2[C@@H]2O[C@@H]3COP(=O)(S)N[C@H]4[C@@H](O)[C@H](n5cnc6c(=O)[nH]c(N)nc65)O[C@@H]4COP(=O)(S)N[C@H]3[C@H]2O)c(=O)[nH]1` (single isomer, unassigned) [Compound 76-0A2]: the EC50 in experiment [1] and in experiment [2] was 10 to 49 µM each time.
With `Nc1ncnc2c1ncn2[C@@H]1O[C@@H]2COP(=O)(O)N[C@H]3[C@@H](O)[C@H](n4cnc5c(N)ncnc54)O[C@@H]3COP(=O)(O)N[C@H]2[C@H]1O` [Compound 73, Diammonium (1S,6S,8R,9R,10S,15S,17R,18R)-8,17-bis(6-amino-9H-purin-9-yl)-9,18-dihydroxy-3,12-dioxo-4,7,13,16-tetraoxa-2,11-diaza-3λ^s,12λ^s-diphosphatricyclo[13.3.0.0^6,10]octadecane-3,12-bis(olate)], the EC50 in experiment [1] (Homo sapiens, THP1-Dual) lay within 1 to 10 µM; in experiment [2] (Homo sapiens, THP1-Dual), 10 to 49 µM.
In the case of `Nc1ncnc2c1ncn2[C@@H]1O[C@@H]2COP(=O)(S)N[C@H]3[C@@H](O)[C@H](n4cnc5c(N)ncnc54)O[C@@H]3COP(=O)(O)N[C@H]2[C@H]1O` (single isomer, unassigned) [Compound 74-0B0], the EC50 in experiment [1] (Homo sapiens, THP1-Dual) lay within 10 to 49 µM; in experiment [2] (Homo sapiens, THP1-Dual), 10 to 49 µM.

The values above are taken from US10961270B2, “Compounds and compositions for treating conditions associated with sting activity” (Innate Tumor Immunity, Inc., priority 2016, dated 2021).
